The values that follow come from US20220315578A1, “BRD9 BIFUNCTIONAL DEGRADERS AND THEIR METHODS OF USE” (NOVARTIS AG, priority 2019, published 2022).

For the assay, the target named is T1, BRD9-GFP (Homo sapiens, UniProt Q9H8M2).
T1 construct: CHYSEL (2A cis-acting hydrolase element) remnant after GFP; mCherry is split off as a separate protein (C); expressed in transfected cells; host or cells: HEK293A cells (Invitrogen R70507), lentiviral transduction with pLenti6-BRD9-GFP-CHYSEL-mCherry, blasticidin selection
T1 sequence (Q9H8M2 1-597): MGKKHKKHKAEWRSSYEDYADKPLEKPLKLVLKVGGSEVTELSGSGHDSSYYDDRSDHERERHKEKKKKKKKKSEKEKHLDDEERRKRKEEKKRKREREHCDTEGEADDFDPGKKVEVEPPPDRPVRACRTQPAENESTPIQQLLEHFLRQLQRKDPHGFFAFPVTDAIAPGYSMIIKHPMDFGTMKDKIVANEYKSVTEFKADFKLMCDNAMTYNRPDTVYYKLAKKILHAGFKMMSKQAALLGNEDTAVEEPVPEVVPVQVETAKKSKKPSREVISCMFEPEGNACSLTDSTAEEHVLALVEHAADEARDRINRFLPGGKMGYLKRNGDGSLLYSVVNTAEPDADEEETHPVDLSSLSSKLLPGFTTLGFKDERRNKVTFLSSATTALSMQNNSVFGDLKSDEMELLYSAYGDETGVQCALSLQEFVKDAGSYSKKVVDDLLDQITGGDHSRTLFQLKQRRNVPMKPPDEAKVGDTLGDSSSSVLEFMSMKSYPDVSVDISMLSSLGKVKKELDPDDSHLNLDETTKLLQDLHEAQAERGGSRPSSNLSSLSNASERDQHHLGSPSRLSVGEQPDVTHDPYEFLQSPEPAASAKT
Description: BRD9-GFP protein abundance flow cytometry assay in HEK293A cells. It is filed as cell-based. The following applies: HEK293A-BRD9-GFP-CHYSEL-mCherry cells; for BRD9 Deg Amax %: 24 h, % protein remaining at the concentration at which maximum degradation is seen; for DC50: 24 h at 37° C., 10-point 1:3 dilution, concentration at which 50% maximal degradation was observed. On the procedure: Compounds of the invention were tested in the following cellular assays. The terms in Table 1 are defined as follows: DC50 refers to the concentration at which 50% maximal degradation was observed; deg Amax is the extent of degradation and the value refers to the % protein remaining at the concentration at which maximum degradation is seen.
BRD9-GFP protein abundance flow cytometry assay in HEK293A cells: Degradation of BRD9 was measured in HEK293A cells expressing BRD9-GFP and mCherry from a stably integrated second generation bicistronic BRD9-GFP-CHYSELmCherry construct. Reduction of the GFP signal measured by flow cytometry served as readout for BRD9 degradation after degrader treatment.
The bicistronic BRD9-GFP-CHYSEL-mCherry construct is based on a pLenti6-DEST vector backbone where a GFP-CHYSEL-mCherry cassette was synthesized and inserted downstream of the DEST cassette by Gibson assembly resulting in the new gateway compatible vector pLenti6-DEST-GFP-CHYSEL-mCherry to allow Gateway cloning with pENTR221-BRD9 (w/o ATG) to obtain the final sensor construct pLenti6-BRD9-GFP-CHYSEL-mCherry.
HEK293 Å-BRD9-GFP-CHYSEL-mCherry sensor cells were generated by lentiviral vector transduction using the pLenti6-BRD9-GFP-CHYSEL-mCherry sensor construct described before. […] The mix was incubated for another 20 min at RT and then added to 1 ml of a freshly prepared suspension of HEK293FT cells in a well of a 6-well plate (concentration 1.2×10^6 cells/ml). 1 day after transfection, the medium was replaced with 1.5 ml of complete growth medium (DMEM high Glucose+10% FCS+1% L-Glutamine+1% NEAA+1% NaPyr.). 48 h post transfection supernatant containing viral transducing particles was collected and frozen at −80° C. […] Infection was performed with […] of collected supernatant containing viral transducing particles in 1 ml medium including 8 μg/ml polybrene. 24 h post infection, stably transfected cells were selected with blasticidin at a concentration of 8 μg/ml.
Stable HEK293 Å-BRD9-GFP-CHYSEL-mCherry cells were maintained in complete growth medium (DMEM high Glucose+10% FCS+1% L-Glutamine+1% NEAA+1% NaPyr.) with passaging performed twice per week. On Day 0, HEK293 Å-BRD9-GFP-CHYSEL-mCherry cells were seeded at 10,000 cells/well in a 96-well microtiter plate in […] complete medium. On Day 1, cells were treated in duplicate with 10-point 1:3 dilution series of compound using the HP D300 Digital Dispenser (Tecan). DMSO concentrations were normalized across the plate to 0.1%. On Day 2, after 24 h of incubation at 37° C., treatment media was discarded, cells rinsed with 100 ul/well PBS and then detached using 40 ul trypsin/well for 5 min. Trypsin was neutralized with 100 ul/well PBS+20% FCS). Flow cytometry was performed on the samples using the Beckman Coulter CytoFLEX flow cytometer. Cell identification was then performed using forward (FSC) vs. side scatter (SSC) plots. Single cell discrimination is performed using FSC-Width (FSC-W) vs. FSC-Height (FSC-H) plots. Median GFP/mCherry ratio values for 5,000 single cells are used to determine BRD9 levels. Median GFP/mCherry ratio values from HEK293 Å-mCherry are used as a background signal and thus defining 0% BRD9 signal. Median GFP/mCherry ratio values from DMSO treated HEK293 Å-BRD9-GFP-CHYSEL-mCherry are used to define 100% BRD9 signal for subsequent DC50 curves (concentration at 50% BRD9 degradation). Concentration response curves plotting relative reduction of the GFP/mCherry ratio signal (measured by flow cytometry) versus 10 compound concentrations (starting concentration […], 3 fold dilution steps) of the compounds allowed generation of DC50 values. Data is shown in Tables 2 and 3, in which, DC50 refers to the concentration at which 50% maximal degradation was observed; deg Amax is the extent of degradation and the value refers to the % protein remaining at the concentration at which maximum degradation is seen.
On the technique in general: A flow cytometer gives signals particle by particle.

For the compound `CCCn1cc(-c2cc(OC)c(CCN3CCN(CC4CCN(C(=O)c5ccc(Cl)c(N6CCC(=O)NC6=O)c5)CC4)CC3)c(OC)c2)c(C)c(C)c1=O` [Compound E48, 1-(2-chloro-5-(4-((4-(4-(4,5-dimethyl-6-oxo-1-propyl-1,6-dihydropyridin-3-yl)-2,6-dimethoxyphenethyl)piperazin-1-yl)methyl)piperidine-1-carbonyl)phenyl)dihydropyrimidine-2,4(1H,3H)-dione], the “BRD9 Deg Amax %” value is given as 15.41% and the DC50 was 2 nM.
For `CCCCn1cc(-c2cc(OC)c(CN3CCC(OC4CCN(CCn5cccc(CN6CCC(=O)NC6=O)c5=O)CC4)CC3)c(OC)c2)c2ccncc2c1=O` [Compound D2, 1-((1-(2-(4-((1-(4-(2-butyl-1-oxo-1,2-dihydro-2,7-naphthyridin-4-yl)-2,6-dimethoxybenzyl)piperidin-4-yl)oxy)piperidin-1-yl)ethyl)-2-oxo-1,2-dihydropyridin-3-yl)methyl)dihydropyrimidine-2,4(1H,3H)-dione], the “BRD9 Deg Amax %” value was 13.05% and the DC50 was determined as 15 nM.
On to `COc1cc(-c2cn(C)c(=O)c3cnccc23)c(OC)cc1CN1CCC(OC2CCN(C(=O)c3ccc(Cl)c(N4CCC(=O)NC4=O)c3)CC2)CC1` [Compound A30, 1-(2-Chloro-5-(4-((1-(2,5-dimethoxy-4-(2-methyl-1-oxo-1,2-dihydro-2,7-naphthyridin-4-yl)benzyl)piperidin-4-yl)oxy)piperidine-1-carbonyl)phenyl)dihydropyrimidine-2,4(1H,3H)-dione], for which the “BRD9 Deg Amax %” value amounted to 13.99% and the DC50 was 16 nM.
Take `CCCn1cc(-c2cc(OC)c(CCN3CC[C@@H](OC4CCN(C(=O)c5ccc(Cl)c(N6CCC(=O)NC6=O)c5)CC4)[C@H](F)C3)c(OC)c2)c(C)c(C)c1=O` [Compound E55, 1-(2-chloro-5-(4-(((3R,4R)-1-(4-(4,5-dimethyl-6-oxo-1-propyl-1,6-dihydropyridin-3-yl)-2,6-dimethoxyphenethyl)-3-fluoropiperidin-4-yl)oxy)piperidine-1-carbonyl)phenyl)dihydropyrimidine-2,4(1H,3H)-dione]: the “BRD9 Deg Amax %” value came out at 18.12% and half-maximal degradation (DC50) was put at 5 nM.
For `COc1cc(-c2cn(C)c(=O)c(C)c2C)cc(OC)c1CCN1CCC(OC2CCN(C(=O)c3ccc(Cl)c(N4CCC(=O)NC4=O)c3)CC2)CC1` [Compound A21, 1-(2-Chloro-5-(4-((1-(2,6-dimethoxy-4-(1,4,5-trimethyl-6-oxo-1,6-dihydropyridin-3-yl)phenethyl)piperidin-4-yl)oxy)piperidine-1-carbonyl)phenyl)dihydropyrimidine-2,4(1H,3H)-dione] the same measures were 12.12% and 1 nM.
For `COc1ccc(C(=O)N2CCC(OCCN3CCN(Cc4c(OC)cc(-c5cn(C)c(=O)c6cnccc56)cc4OC)CC3)CC2)cc1N1CCC(=O)NC1=O` [Compound A34, 1-(5-(4-(2-(4-(2,6-Dimethoxy-4-(2-methyl-1-oxo-1,2-dihydro-2,7-naphthyridin-4-yl)benzyl)piperazin-1-yl)ethoxy)piperidine-1-carbonyl)-2-methoxyphenyl)dihydropyrimidine-2,4(1H,3H)-dione] the same measures were 13.80% and 37 nM.
For `CCCCn1cc(-c2ccc(O[C@@H]3CCN(CC4CCN(CCn5cccc(CN6CCC(=O)NC6=O)c5=O)CC4)C[C@H]3F)c(F)c2)c2ccncc2c1=O` [Compound E17, 1-((1-(2-(4-(((3R,4R)-4-(4-(2-butyl-1-oxo-1,2-dihydro-2,7-naphthyridin-4-yl)-2-fluorophenoxy)-3-fluoropiperidin-1-yl)methyl)piperidin-1-yl)ethyl)-2-oxo-1,2-dihydropyridin-3-yl)methyl)dihydropyrimidine-2,4(1H,3H)-dione] the same measures were 18.79% and 5 nM.
Regarding `CCCCn1cc(-c2cc(F)c(O[C@@H]3CCN(CC4CCN(C(=O)c5ccc(OC)c(N6CCC(=O)NC6=O)c5)CC4)C[C@H]3F)c(F)c2)c2ccncc2c1=O` [Compound E56, 1-(5-(4-(((3R,4R)-4-(4-(2-butyl-1-oxo-1,2-dihydro-2,7-naphthyridin-4-yl)-2,6-difluorophenoxy)-3-fluoropiperidin-1-yl)methyl)piperidine-1-carbonyl)-2-methoxyphenyl)dihydropyrimidine-2,4(1H,3H)-dione], the “BRD9 Deg Amax %” value stood at 19.65% and it took 1 nM to reach half-maximal degradation (DC50).
For `COc1cc(-c2cn(C)c(=O)c3cnccc23)c(OC)cc1CN1CCC(OC2CCN(C(=O)COc3ccc(N4CCC(=O)NC4=O)cc3)CC2)CC1` [Compound E46, 1-(4-(2-(4-((1-(2,5-dimethoxy-4-(2-methyl-1-oxo-1,2-dihydro-2,7-naphthyridin-4-yl)benzyl)piperidin-4-yl)oxy)piperidin-1-yl)-2-oxoethoxy)phenyl)dihydropyrimidine-2,4(1H,3H)-dione] the same measures were 15.69% and 33 nM.
For `COc1cc(-c2cn(C)c(=O)c3cnccc23)cc(OC)c1CN1CCC(OC2CCN(C(=O)c3cccc(N4CCC(=O)NC4=O)c3)CC2)CC1` [Compound A36, 1-(3-(4-((1-(2,6-Dimethoxy-4-(2-methyl-1-oxo-1,2-dihydro-2,7-naphthyridin-4-yl)benzyl)piperidin-4-yl)oxy)piperidine-1-carbonyl)phenyl)dihydropyrimidine-2,4(1H,3H)-dione], the “BRD9 Deg Amax %” value came to 18.42% and the DC50 turned out to be 39 nM.
Consider `CCCCn1cc(-c2cc(OC)c(OC3CCN(CC4CCN(C(=O)c5ccc(OC)c(N6CCC(=O)NC6=O)c5)CC4)CC3)c(OC)c2)c2ccncc2c1=O` [Compound B10, 1-(5-(4-((4-(4-(2-butyl-1-oxo-1,2-dihydro-2,7-naphthyridin-4-yl)-2,6-dimethoxyphenoxy)piperidin-1-yl)methyl)piperidine-1-carbonyl)-2-methoxyphenyl)dihydropyrimidine-2,4(1H,3H)-dione], for which the “BRD9 Deg Amax %” value came out at 16.55% and the DC50 was found to be 6 nM.

The DC50 is the concentration giving 50% degradation.
